Assay results: ChEMBL document CHEMBL3813606, “Synthesis and skin gene analysis of 4'-acetoxy-resveratrol (4AR), therapeutic potential for dermal applications” (Bioorg Med Chem Lett, 2016)

Columns and labels:
Zone of skin [1] = experiment: Upregulation of elastin gene expression in human epidermal full thickness skin cultures at 1 % after 24 hrs by real time PCR analysis relative to control; type: functional
Zone of skin [2] = experiment: Upregulation of SIRT-1 gene expression in human epidermal full thickness skin cultures at 1 % after 24 hrs by real time PCR analysis relative to control; type: functional
[3] = Lipophilicity, log P of the compound; settings: octanol/water
Zone of skin [4] = experiment: Upregulation of IGF 1 gene expression in human epidermal full thickness skin cultures at 1 % after 24 hrs by qPCR analysis relative to control; type: functional
Zone of skin [5] = experiment: Upregulation of type IV collagen alpha 1 gene expression in human epidermal full thickness skin cultures at 1 % after 24 hrs by real time PCR analysis relative to control; type: functional
Zone of skin [6] = experiment: Upregulation of catalase gene expression in human epidermal full thickness skin cultures at 1 % after 24 hrs by qPCR analysis relative to control; type: functional
Zone of skin [7] = experiment: Upregulation of LOX gene expression in human epidermal full thickness skin cultures at 1 % after 24 hrs by qPCR analysis relative to control; type: functional
Zone of skin [8] = experiment: Toxicity in human epidermal full thickness skin cultures assessed as intact and healthy keratinocytes at 1 % after 24 hrs by hematoxylin/eosin staining based assay
Zone of skin [9] = experiment: Upregulation of MT1H gene expression in human epidermal full thickness skin cultures at 1 % after 24 hrs by qPCR analysis relative to control; type: functional
Zone of skin [10] = experiment: Upregulation of FBN 1 gene expression in human epidermal full thickness skin cultures at 1 % after 24 hrs by qPCR analysis relative to control; type: functional
NHDF = experiment: Upregulation of SIRT-1 gene expression in NHDF by real time RT-PCR analysis relative to control; type: functional, Homo sapiens
Zone of skin [11] = experiment: Upregulation of MT2A gene expression in human epidermal full thickness skin cultures at 1 % after 24 hrs by qPCR analysis relative to control; type: functional
Zone of skin [12] = experiment: Upregulation of SOD 1 gene expression in human epidermal full thickness skin cultures at 1 % after 24 hrs by qPCR analysis relative to control; type: functional
Zone of skin [13] = experiment: Upregulation of SOD 2 gene expression in human epidermal full thickness skin cultures at 1 % after 24 hrs by qPCR analysis relative to control; type: functional
Zone of skin [14] = experiment: Upregulation of PCNA gene expression in human epidermal full thickness skin cultures at 1 % after 24 hrs by qPCR analysis relative to control; type: functional
Zone of skin [15] = experiment: Upregulation of LAMB 1 gene expression in human epidermal full thickness skin cultures at 1 % after 24 hrs by qPCR analysis relative to control; type: functional
Zone of skin [16] = experiment: Upregulation of procollagen type III gene expression in human epidermal full thickness skin cultures at 1 % after 24 hrs by real time PCR analysis relative to control; type: functional
Zone of skin [17] = experiment: Upregulation of TIMP 1 gene expression in human epidermal full thickness skin cultures at 1 % after 24 hrs by real time PCR analysis relative to control; type: functional
Zone of skin [18] = experiment: Upregulation of NGF gene expression in human epidermal full thickness skin cultures at 1 % after 24 hrs by qPCR analysis relative to control; type: functional
Zone of skin [19] = experiment: Upregulation of TIMP 2 gene expression in human epidermal full thickness skin cultures at 1 % after 24 hrs by real time PCR analysis relative to control; type: functional
Zone of skin [20] = experiment: Toxicity in human epidermal full thickness skin cultures assessed as intact and healthy fibroblasts at 1 % after 24 hrs by hematoxylin/eosin staining based assay
Zone of skin [21] = experiment: Upregulation of TGF gene expression in human epidermal full thickness skin cultures at 1 % after 24 hrs by qPCR analysis relative to control; type: functional
Zone of skin [22] = experiment: Toxicity in human epidermal full thickness skin cultures assessed as intact and healthy stratum corneum at 1 % after 24 hrs by hematoxylin/eosin staining based assay
Zone of skin [23] = experiment: Upregulation of HBEGF gene expression in human epidermal full thickness skin cultures at 1 % after 24 hrs by qPCR analysis relative to control; type: functional
Zone of skin [24] = experiment: Upregulation of type IV collagen alpha 2 gene expression in human epidermal full thickness skin cultures at 1 % after 24 hrs by real time PCR analysis relative to control; type: functional

In the case of `Oc1ccc(/C=C/c2cc(O)cc(O)c2)cc1` [RESVERATROL], the Activity (Zone of skin [1]) is reported as 180%, the “fold change (FC)” value (Zone of skin [2]) is reported as 1.8 and the logP [3] is reported as 3.1.

With `CC(=O)Oc1ccc(/C=C/c2cc(O)cc(O)c2)cc1` the Activity (Zone of skin [4]) was 264%, the Activity (Zone of skin [5]) was 170% and the Activity (Zone of skin [6]) was 160%. For the same compound, the Activity (Zone of skin [1]) was 280%, the Activity (Zone of skin [7]) was 190% and the Activity (Zone of skin [8]) was “Non-toxic”. The Activity (Zone of skin [9]) was 6400%, the Activity (Zone of skin [10]) was 130% and the “fold change (FC)” value (NHDF) was greater than 3.3. For the same compound, the Activity (Zone of skin [11]) was 340%, the Activity (Zone of skin [12]) was 160% and the Activity (Zone of skin [13]) was 170%. It also gave an Activity (Zone of skin [14]) of 540%, an Activity (Zone of skin [15]) of 140% and an Activity (Zone of skin [16]) of 220%. For the same compound, the Activity (Zone of skin [2]) was 335%, the Activity (Zone of skin [17]) was 250% and the Activity (Zone of skin [18]) was 672%. The Activity (Zone of skin [19]) was 130%, the Activity (Zone of skin [20]) was “Non-toxic” and the Activity (Zone of skin [21]) was 200%. The Activity (Zone of skin [22]) was “Non-toxic”, the Activity (Zone of skin [23]) was 190% and the Activity (Zone of skin [24]) was 180%.
